According to ChEMBL document CHEMBL5705893, “Targeting the mitotic checkpoint for cancer therapy with NMS-P715, an inhibitor of MPS1 kinase” (Cancer Res, 2010):
Activity calls are given as the source filed them. The calls are words filed in the database; no cut-off is given here.

Columns and labels:
[1] = biological target: High affinity nerve growth factor receptor (Homo sapiens, UniProt P04629); assay: Inhibition of recombinant TRKA (unknown origin)
Casein kinase 2 = Casein kinase 2 (Homo sapiens, UniProt P67870+P68400+P19784+Q8NEV1); assay: Inhibition of recombinant CK2 (unknown origin); assay type: protein assay
[2] = Cmax in Athymic nu-nu mouse at 10 mg/kg, po measured upto 24 hrs by LC-MS/MS analysis; assay type: ADME, organism-based; conditions: in vivo
BXPC-3 = assay: Antiproliferative activity against human BXPC-3 cells assessed as inhibition of cell growth incubated for 72 hrs by celltiter-glo assay; assay type: functional, cell-based; conditions: BXPC-3, 72 h
U2OS [3] = assay: Induction of mitotic arrest in human U2OS cells expressing YFP alpha-tubulin assessed as chromosome misalignment in anaphase incubated for 1 hr by DAPI staining based confocal microscopic analysis; assay type: functional, cell-based
[4] = biological target: Inhibitor of nuclear factor kappa-B kinase subunit beta (Homo sapiens, UniProt O14920); assay: Inhibition of recombinant IKK2 (unknown origin)
Sequence of Inhibitor of nuclear factor kappa-B kinase subunit beta (O14920 whole entry): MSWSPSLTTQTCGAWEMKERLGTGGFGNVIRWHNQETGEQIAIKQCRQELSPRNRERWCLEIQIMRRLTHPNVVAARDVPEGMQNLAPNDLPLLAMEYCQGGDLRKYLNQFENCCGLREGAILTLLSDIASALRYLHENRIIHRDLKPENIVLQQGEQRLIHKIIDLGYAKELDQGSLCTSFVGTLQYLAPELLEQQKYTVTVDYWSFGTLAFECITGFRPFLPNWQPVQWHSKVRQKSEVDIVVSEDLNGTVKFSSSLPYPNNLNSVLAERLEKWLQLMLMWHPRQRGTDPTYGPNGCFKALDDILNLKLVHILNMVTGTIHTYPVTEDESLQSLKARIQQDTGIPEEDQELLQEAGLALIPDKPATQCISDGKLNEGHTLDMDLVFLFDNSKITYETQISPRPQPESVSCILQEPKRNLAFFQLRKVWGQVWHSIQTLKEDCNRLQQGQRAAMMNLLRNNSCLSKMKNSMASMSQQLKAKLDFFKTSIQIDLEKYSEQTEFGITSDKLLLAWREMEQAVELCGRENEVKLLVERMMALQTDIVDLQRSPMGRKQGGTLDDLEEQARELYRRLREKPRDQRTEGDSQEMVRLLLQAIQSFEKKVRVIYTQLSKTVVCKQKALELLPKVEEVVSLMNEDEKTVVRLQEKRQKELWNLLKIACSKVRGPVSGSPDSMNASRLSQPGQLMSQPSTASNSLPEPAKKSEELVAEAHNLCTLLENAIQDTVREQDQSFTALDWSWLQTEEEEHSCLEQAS

CCRF-CEM = assay: Antiproliferative activity against human CCRF-CEM cells assessed as inhibition of cell growth incubated for 72 hrs by celltiter-glo assay; assay type: functional, cell-based
[5] = biological target: Glycogen synthase kinase-3 beta (Homo sapiens, UniProt P49841); assay: Inhibition of recombinant GSK3beta (unknown origin)
Sequence of Glycogen synthase kinase-3 beta (P49841 whole entry): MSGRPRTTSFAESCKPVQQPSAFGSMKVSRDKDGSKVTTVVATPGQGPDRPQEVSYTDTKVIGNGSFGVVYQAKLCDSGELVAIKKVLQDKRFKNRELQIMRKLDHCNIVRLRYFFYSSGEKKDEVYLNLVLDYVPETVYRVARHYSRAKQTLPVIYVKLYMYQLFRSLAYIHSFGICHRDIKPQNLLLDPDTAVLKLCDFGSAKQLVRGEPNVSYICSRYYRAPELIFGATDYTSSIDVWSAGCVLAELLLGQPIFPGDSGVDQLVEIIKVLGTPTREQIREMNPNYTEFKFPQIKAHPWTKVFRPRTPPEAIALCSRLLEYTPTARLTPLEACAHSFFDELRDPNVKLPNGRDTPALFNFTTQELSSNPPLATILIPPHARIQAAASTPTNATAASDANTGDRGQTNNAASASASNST

[6] = Antiproliferative activity against human CL-11 cells assessed as inhibition of cell growth incubated for 72 hrs by celltiter-glo assay; assay type: functional, cell-based; conditions: CL-11, 72 h
[7] = biological target: Serine/threonine-protein kinase pim-1 (Homo sapiens, UniProt P11309); assay: Inhibition of recombinant PIM1 (unknown origin)
Sequence of Serine/threonine-protein kinase pim-1 (P11309 whole entry): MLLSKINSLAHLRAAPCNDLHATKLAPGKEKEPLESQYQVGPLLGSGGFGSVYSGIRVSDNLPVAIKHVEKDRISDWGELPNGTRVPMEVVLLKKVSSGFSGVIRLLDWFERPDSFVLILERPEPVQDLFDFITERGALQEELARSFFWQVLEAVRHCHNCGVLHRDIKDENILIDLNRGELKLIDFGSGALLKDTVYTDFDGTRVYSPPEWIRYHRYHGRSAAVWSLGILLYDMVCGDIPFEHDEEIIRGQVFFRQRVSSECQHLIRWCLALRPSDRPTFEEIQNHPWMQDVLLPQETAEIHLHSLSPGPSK

[8] = AUC in Athymic nu-nu mouse at 100 mg/kg, po measured upto 24 hrs by LC-MS/MS analysis; assay type: ADME, organism-based; conditions: in vivo
[9] = biological target: Mitogen-activated protein kinase 14 (Homo sapiens, UniProt Q16539); assay: Inhibition of recombinant P38alpha (unknown origin)
Sequence of Mitogen-activated protein kinase 14 (Q16539 whole entry): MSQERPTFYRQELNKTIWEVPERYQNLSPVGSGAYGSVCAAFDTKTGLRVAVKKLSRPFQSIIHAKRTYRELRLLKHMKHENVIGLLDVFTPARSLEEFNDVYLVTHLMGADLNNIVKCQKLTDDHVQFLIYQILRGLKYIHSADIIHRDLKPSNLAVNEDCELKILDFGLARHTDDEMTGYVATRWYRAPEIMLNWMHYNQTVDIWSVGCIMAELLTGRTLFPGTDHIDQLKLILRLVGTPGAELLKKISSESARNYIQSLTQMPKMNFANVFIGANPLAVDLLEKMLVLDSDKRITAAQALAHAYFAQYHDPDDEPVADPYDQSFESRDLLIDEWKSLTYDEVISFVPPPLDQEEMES

M14 = assay: Antiproliferative activity against human M14 cells assessed as inhibition of cell growth incubated for 72 hrs by celltiter-glo assay; assay type: functional, cell-based; conditions: M14, 72 h
HCC78 = assay: Antiproliferative activity against human HCC78 cells assessed as inhibition of cell growth incubated for 72 hrs by celltiter-glo assay; assay type: functional, cell-based; conditions: HCC78, 72 h
[10] = biological target: CDC7/DBF4 (Cell division cycle 7-related protein kinase/Activator of S phase kinase) (Homo sapiens, UniProt O00311); assay: Inhibition of recombinant CDC7/DBF4 (unknown origin); assay type: protein-complex assay
Sequence of CDC7/DBF4 (Cell division cycle 7-related protein kinase/Activator of S phase kinase) (Q9UBU7 whole entry): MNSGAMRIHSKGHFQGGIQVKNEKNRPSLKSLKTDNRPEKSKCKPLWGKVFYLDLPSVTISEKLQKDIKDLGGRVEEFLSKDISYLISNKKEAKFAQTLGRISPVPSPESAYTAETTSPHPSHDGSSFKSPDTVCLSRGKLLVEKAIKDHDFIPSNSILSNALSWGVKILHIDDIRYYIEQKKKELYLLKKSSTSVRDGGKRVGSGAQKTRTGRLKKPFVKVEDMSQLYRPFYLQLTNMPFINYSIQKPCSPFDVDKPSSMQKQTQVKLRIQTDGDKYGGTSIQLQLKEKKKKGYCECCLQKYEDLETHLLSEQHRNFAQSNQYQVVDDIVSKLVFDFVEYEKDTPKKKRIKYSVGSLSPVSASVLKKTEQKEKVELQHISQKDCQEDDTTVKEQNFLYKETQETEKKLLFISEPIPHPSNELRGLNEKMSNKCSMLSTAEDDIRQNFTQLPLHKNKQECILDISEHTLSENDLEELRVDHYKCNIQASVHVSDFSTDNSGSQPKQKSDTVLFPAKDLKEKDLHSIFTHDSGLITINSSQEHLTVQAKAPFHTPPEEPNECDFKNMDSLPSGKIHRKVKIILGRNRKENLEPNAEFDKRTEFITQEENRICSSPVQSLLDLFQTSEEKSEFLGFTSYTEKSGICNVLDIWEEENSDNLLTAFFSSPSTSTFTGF
Sequence of CDC7/DBF4 (Cell division cycle 7-related protein kinase/Activator of S phase kinase) (O00311 whole entry): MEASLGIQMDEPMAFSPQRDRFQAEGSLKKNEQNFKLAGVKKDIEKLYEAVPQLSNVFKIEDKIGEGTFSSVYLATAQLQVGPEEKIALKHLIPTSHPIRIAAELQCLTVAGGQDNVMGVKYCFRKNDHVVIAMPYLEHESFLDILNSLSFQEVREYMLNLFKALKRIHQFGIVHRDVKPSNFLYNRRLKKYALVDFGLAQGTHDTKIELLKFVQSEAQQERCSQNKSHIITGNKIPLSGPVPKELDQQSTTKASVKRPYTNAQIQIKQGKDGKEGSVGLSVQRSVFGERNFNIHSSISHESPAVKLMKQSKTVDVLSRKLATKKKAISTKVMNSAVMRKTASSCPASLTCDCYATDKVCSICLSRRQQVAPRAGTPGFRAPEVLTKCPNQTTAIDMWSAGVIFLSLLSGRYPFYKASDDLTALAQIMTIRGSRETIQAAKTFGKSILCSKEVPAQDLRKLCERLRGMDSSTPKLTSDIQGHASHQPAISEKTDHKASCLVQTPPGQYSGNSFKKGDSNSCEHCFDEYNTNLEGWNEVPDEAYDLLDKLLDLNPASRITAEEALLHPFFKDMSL

A2780 [11] = assay: Antitumor activity against human A2780 cells xenografted in Athymic nu-nu nude mouse assessed as reduction in histone H3 phosphorylation at 100 mg/kg, po administered for 2 days and measured after 6 hrs by Western blot analysis; assay type: functional, organism-based; conditions: time 54.0 hrs
[12] = biological target: Tyrosine-protein kinase Lyn (Homo sapiens, UniProt P07948); assay: Inhibition of recombinant LYN (unknown origin)
Sequence of Tyrosine-protein kinase Lyn (P07948 whole entry): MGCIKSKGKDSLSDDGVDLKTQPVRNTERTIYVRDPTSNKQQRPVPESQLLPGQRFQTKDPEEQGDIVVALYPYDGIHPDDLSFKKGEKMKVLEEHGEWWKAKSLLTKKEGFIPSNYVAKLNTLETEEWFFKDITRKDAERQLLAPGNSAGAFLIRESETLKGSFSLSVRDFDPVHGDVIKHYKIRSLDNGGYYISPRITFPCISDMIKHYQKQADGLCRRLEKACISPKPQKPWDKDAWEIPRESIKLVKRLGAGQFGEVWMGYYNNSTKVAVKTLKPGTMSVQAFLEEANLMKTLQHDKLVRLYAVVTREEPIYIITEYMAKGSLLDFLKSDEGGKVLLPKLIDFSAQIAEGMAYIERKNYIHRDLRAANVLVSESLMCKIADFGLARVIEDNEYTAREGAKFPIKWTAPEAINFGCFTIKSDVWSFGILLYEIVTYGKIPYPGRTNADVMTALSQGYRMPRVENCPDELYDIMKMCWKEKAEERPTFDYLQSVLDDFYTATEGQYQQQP

PC-3 = assay: Antiproliferative activity against human PC-3 cells assessed as inhibition of cell growth incubated for 72 hrs by celltiter-glo assay; assay type: functional, cell-based; conditions: PC-3, 72 h
A2780 [13] = assay: Cell cycle arrest in human A2780 cells assessed as accumulation of cells at G1 phase at 0.2 to 1 micromol/L incubated for 24 hrs by FACS/PI staining based flow cytometric analysis; assay type: functional; conditions: dose 0.2-1 µmol/L
[14] = Clearance in Athymic nu-nu mouse at 10 mg/kg, iv measured upto 24 hrs by LC-MS/MS analysis; assay type: ADME, organism-based; conditions: in vivo
[15] = biological target: Eukaryotic translation initiation factor 2-alpha kinase 3 (Homo sapiens, UniProt Q9NZJ5); assay: Inhibition of recombinant PERK (unknown origin)
NCI-H82 = assay: Antiproliferative activity against human NCI-H82 cells assessed as inhibition of cell growth incubated for 72 hrs by celltiter-glo assay; assay type: functional, cell-based; conditions: NCI-H82, 72 h
[16] = biological target: Serine/threonine-protein kinase PAK 4 (Homo sapiens, UniProt O96013); assay: Inhibition of recombinant PAK4 (unknown origin)
Sequence of Serine/threonine-protein kinase PAK 4 (O96013 whole entry): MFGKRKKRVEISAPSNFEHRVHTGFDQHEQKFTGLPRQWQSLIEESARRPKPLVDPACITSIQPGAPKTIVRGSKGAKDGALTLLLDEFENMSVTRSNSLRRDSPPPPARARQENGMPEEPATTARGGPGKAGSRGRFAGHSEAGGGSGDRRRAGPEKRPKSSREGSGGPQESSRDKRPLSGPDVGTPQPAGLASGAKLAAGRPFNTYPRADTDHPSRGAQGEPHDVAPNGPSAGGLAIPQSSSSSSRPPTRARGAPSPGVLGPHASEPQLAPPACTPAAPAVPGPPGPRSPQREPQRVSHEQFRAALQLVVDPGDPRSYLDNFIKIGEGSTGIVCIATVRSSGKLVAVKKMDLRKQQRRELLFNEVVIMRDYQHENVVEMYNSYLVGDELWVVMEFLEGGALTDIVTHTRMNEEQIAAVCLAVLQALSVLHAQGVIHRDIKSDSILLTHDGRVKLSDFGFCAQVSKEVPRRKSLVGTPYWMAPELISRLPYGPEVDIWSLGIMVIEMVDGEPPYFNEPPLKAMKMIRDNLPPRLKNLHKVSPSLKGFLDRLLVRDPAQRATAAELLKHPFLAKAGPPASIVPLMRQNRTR

U2OS [17] = assay: Induction of mitotic arrest in human U2OS cells expressing YFP-alpha-tubulin assessed as reduction in mitotic cells at 1 micromol/L by time-lapse microscopic analysis; assay type: functional, cell-based; conditions: dose 1.0 µmol/L
SW48 = assay: Antiproliferative activity against human SW48 cells assessed as inhibition of cell growth incubated for 72 hrs by celltiter-glo assay; assay type: functional, cell-based; conditions: SW48, 72 h
SF-539 = assay: Antiproliferative activity against human SF-539 cells assessed as inhibition of cell growth incubated for 72 hrs by celltiter-glo assay; assay type: functional, cell-based; conditions: SF-539, 72 h
[18] = biological target: Fibroblast growth factor receptor 1 (Homo sapiens, UniProt P11362); assay: Inhibition of recombinant FGFR1 (unknown origin)
Sequence of Fibroblast growth factor receptor 1 (P11362 whole entry): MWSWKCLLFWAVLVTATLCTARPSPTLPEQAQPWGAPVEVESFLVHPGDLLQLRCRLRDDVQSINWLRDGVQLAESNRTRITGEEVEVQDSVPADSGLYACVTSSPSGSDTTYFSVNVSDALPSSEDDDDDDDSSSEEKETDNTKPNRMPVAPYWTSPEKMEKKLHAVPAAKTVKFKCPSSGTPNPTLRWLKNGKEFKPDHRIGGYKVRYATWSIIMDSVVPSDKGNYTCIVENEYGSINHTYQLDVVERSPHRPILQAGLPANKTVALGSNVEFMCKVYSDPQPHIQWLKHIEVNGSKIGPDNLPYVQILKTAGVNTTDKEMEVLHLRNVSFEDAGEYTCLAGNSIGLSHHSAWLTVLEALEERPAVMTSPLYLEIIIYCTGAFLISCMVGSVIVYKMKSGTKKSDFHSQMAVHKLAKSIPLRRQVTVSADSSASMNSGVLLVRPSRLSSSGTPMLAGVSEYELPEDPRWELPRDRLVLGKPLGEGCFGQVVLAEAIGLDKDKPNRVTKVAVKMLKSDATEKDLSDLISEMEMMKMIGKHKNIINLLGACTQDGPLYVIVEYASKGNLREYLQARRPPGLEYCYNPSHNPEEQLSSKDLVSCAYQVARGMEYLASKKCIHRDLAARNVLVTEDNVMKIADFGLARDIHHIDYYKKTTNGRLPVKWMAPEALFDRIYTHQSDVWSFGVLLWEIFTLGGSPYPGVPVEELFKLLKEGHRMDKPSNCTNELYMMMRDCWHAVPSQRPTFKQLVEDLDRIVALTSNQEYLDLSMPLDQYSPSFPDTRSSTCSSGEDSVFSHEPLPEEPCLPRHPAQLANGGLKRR

L-363 = assay: Antiproliferative activity against human L-363 cells assessed as inhibition of cell growth incubated for 72 hrs by celltiter-glo assay; assay type: functional, cell-based; conditions: L-363, 72 h
U2OS [19] = assay: Inhibition of colony formation in human U2OS cells assessed as decrease in colony number incubated for 22 hrs followed by compound washout and measured after 8 days by crystal violet staining based assay; assay type: functional, cell-based
[20] = biological target: Vascular endothelial growth factor receptor 3 (Homo sapiens, UniProt P35916); assay: Inhibition of recombinant VEGFR3 (unknown origin)
A2780 [21] = assay: Induction of apoptosis in human A2780 cells assessed as PARP clevage at 0.2 to 1 micromol/L incubated for 2 to 72 hrs by Western blot analysis; assay type: functional, cell-based; conditions: dose 0.2-1 µmol/L, time 2-72 hrs
C-33-A = assay: Antiproliferative activity against human C-33-A cells assessed as inhibition of cell growth incubated for 72 hrs by celltiter-glo assay; assay type: functional, cell-based
KARPAS-299 = assay: Antiproliferative activity against human KARPAS-299 cells assessed as inhibition of cell growth incubated for 72 hrs by celltiter-glo assay; assay type: functional, cell-based; conditions: KARPAS-299, 72 h
A2780 [22] = assay: Cell cycle arrest in human A2780 cells assessed as accumulation of cells at sub-G1 phase at 0.2 to 1 micromol/L incubated for 72 hrs by FACS/PI staining based flow cytometric analysis; assay type: functional; conditions: dose 0.2-1 µmol/L
SW-620 = assay: Antiproliferative activity against human SW620 cells assessed as inhibition of cell growth incubated for 72 hrs by celltiter-glo assay; assay type: functional, cell-based; conditions: SW-620, 72 h
MV4-11 = assay: Antiproliferative activity against human MV4-11 cells assessed as inhibition of cell growth incubated for 72 hrs by celltiter-glo assay; assay type: functional, cell-based; conditions: MV4-11, 72 h
NHDF = assay: Antiproliferative activity against human NHDF cells assessed as inhibition of cell growth incubated for 72 hrs by celltiter-glo assay; assay type: functional, cell-based
SU-DHL-8 = assay: Antiproliferative activity against human SU-DHL-8 cells assessed as inhibition of cell growth incubated for 72 hrs by celltiter-glo assay; assay type: functional, cell-based; conditions: SU-DHL-8, 72 h
HT-29 = assay: Antiproliferative activity against human HT-29 cells assessed as inhibition of cell growth incubated for 72 hrs by celltiter-glo assay; assay type: functional, cell-based; conditions: HT-29, 72 h
[23] = biological target: Mast/stem cell growth factor receptor Kit (Homo sapiens, UniProt P10721); assay: Inhibition of recombinant KIT (unknown origin)
[24] = Inhibition of recombinant SULU1 (unknown origin); design: species or system Homo sapiens
[25] = AUC in Athymic nu-nu mouse at 10 mg/kg, po measured upto 24 hrs by LC-MS/MS analysis; assay type: ADME, organism-based; conditions: in vivo

## CCc1cccc(CC)c1NC(=O)c1nn(C)c2c1CCc1cnc(Nc3ccc(C(=O)NC4CCN(C)CC4)cc3OC(F)(F)F)nc1-2
[1]
  IC50: > 10000 nM
Casein kinase 2
  IC50: 5700 nM
[2]
  Cmax: 600 nM
BXPC-3
  IC50: 2180 nM
U2OS [3]
  Activity: Active
[4]
  IC50: > 10000 nM
CCRF-CEM
  IC50: 1430 nM
[5]
  IC50: > 10000 nM
[6]
  IC50: 1320 nM
[7]
  IC50: > 10000 nM
[8]
  AUC at 24 h: 50.7 µM·h
[9]
  IC50: > 10000 nM
M14
  IC50: 698 nM
HCC78
  IC50: 10000 nM
[10]
  IC50: > 10000 nM
A2780 [11]
  Activity: Active
[12]
  IC50: > 10000 nM
PC-3
  IC50: 1990 nM
A2780 [13]
  Activity: Active
[14]
  clearance: 10 mL/min/kg
[15]
  IC50: > 10000 nM
NCI-H82
  IC50: 2590 nM
[16]
  IC50: > 10000 nM
U2OS [17]
  Activity: Active
SW48
  IC50: 551 nM
SF-539
  IC50: 807 nM
[18]
  IC50: > 10000 nM
L-363
  IC50: 1610 nM
U2OS [19]
  Activity: Active
[20]
  IC50: > 10000 nM
A2780 [21]
  Activity: Active
C-33-A
  IC50: 3010 nM
KARPAS-299
  IC50: 3530 nM
A2780 [22]
  Activity: Active
SW-620
  IC50: 472 nM
MV4-11
  IC50: 1140 nM
NHDF
  IC50: 10000 nM
SU-DHL-8
  IC50: 829 nM
HT-29
  IC50: 3920 nM
[23]
  IC50: > 10000 nM
[24]
  IC50: > 10000 nM
[25]
  AUC at 24 h: 8.66 µM·h
